Legend:
[1] = target: FGFR2 (Homo sapiens (Human), UniProt P21802); assay: Biochemical FGFR2 Caliper assay
[2] = test system: SNU-16; assay: Cell SNU-16 assay; format: cell-based
[3] = Homo sapiens, SNU-16, SNU-16 cells

Sequence of FGFR2 (P21802 22-821): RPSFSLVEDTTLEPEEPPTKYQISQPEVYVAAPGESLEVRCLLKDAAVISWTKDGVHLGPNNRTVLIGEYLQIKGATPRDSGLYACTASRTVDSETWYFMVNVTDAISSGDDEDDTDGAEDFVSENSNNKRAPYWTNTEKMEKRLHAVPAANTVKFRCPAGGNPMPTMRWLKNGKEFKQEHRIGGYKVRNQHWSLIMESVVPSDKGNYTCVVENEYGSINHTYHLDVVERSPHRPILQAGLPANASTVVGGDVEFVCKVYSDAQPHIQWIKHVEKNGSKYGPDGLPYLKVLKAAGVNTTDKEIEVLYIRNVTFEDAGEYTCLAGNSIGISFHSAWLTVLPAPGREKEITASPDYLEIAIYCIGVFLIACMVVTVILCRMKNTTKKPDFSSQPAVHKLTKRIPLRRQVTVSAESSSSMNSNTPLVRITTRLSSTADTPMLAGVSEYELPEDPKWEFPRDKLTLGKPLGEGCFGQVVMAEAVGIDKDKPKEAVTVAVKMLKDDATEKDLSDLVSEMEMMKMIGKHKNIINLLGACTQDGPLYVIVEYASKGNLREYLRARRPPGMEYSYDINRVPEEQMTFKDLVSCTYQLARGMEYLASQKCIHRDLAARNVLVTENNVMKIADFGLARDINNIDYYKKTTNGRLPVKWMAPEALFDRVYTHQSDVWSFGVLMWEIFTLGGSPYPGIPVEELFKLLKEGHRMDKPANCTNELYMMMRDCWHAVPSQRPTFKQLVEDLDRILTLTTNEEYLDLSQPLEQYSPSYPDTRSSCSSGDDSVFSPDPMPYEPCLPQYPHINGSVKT

Row | Structure (SMILES) | IC50 [1] [µM] | IC50 [2, 3] [µM] | IC50 ([2]; SNU-16 cells) [µM]
1 | Cn1c(-c2ccc(NC(=O)[C@H]3CN3)cc2)c(-c2ccc(C(=O)N3CCCC3)cc2)c2c(N)ncnc21 (single isomer, unassigned) [Example 900] | 1 to 100 | 1 to 100 | –
2 | C#Cc1nc2ccc(-c3c(-c4ccc(Oc5nccc(C)n5)cc4)c4c(N)ncnc4n3C)cc2o1 [Example 1167] | < 0.1 | ≤ 0.1 | –
3 | C=C(C)C(=O)Nc1ccc(-c2c(-c3cnn(-c4ccccc4)c3C)c3c(N)ncnc3n2C)cc1 [Example 1276] | 1 to 100 | 1 to 100 | –
4 | C=C(C)C(=O)Nc1ccc(-c2c(-c3ccc(Oc4nccc(C)n4)cc3)c3c(C)ncnc3n2C)c(C)c1 [Example 1125] | 1 to 100 | 1 to 100 | –
5 | C#Cc1cc(C)c(-c2c(C3=CC[C@@H](C(=O)N4CCCC4)CC3)c3c(C)ncnc3n2C)cn1 (single isomer, unassigned) [Example 1199] | < 0.1 | ≤ 0.1 | –
6 | C=C(C)C(=O)Nc1ccc(-c2c(C3=CC[C@@]4(CC3)Cc3ccc(OC)nc3C4=O)c3c(N)ncnc3n2C)cc1 [Example 1338] | 1 to 100 | 1 to 100 | –
7 | C=C(C)C(=O)Nc1ccc(-c2c(-c3cnn(C4CCCC4)c3)c3c(N)ncnc3n2C)cc1 [Example 1275] | 0.25 to 1 | 0.25 to 1 | –
8 | C=C(C)C(=O)Nc1ccc(-c2c(C3=CC[C@H](C(=O)N4CCCC4)CC3)c3c(N)ncnc3n2C)c(Cl)c1 [Example 1017] | < 0.1 | ≤ 0.1 | –
9 | C#Cc1cc(C)c(-c2c(C3=CC[C@H](C(=O)N4CCC[C@H]4C)CC3)c3c(N)ncnc3n2C)cn1 [Example 1249] | 0.25 to 1 | 0.1 to 0.25 | –
10 | C=CC(=O)N1CC=C(c2c(-c3ccc(Oc4cccc(C)n4)cc3)c3c(N)ncnc3n2C)[C@@H]1C (single isomer, unassigned) [Example 933] | < 0.1 | ≤ 0.1 | –
11 | C=C(C)C(=O)Nc1ccc(-c2c(-c3ccc(C(=O)N4CCCC4)cc3)c3c(N)n[nH]c(=O)c3n2C)cc1 [Example 870] | 1 to 100 | – | 0.1 to 0.25
12 | C#Cc1cc(OC)c(-c2c(C3=CC[C@@H](C(=O)N4CCC[C@H]4C#N)CC3)c3c(C)ncnc3n2C)c(C)n1 [Example 1476] | 1 to 100 | – | 0.25 to 1
13 | C=C(C)C(=O)Nc1ccc(-c2c(C3=CC[C@@H](C(=O)N4CCC[C@@H]4C4CC4)CC3)c3c(N)ncnc3n2C)cc1 [Example 1055] | < 0.1 | ≤ 0.1 | –
14 | C=C(C)C(=O)Nc1ccc(-c2c(C3=C(F)C[C@@H](C(=O)N4CCCC4)CC3)c3c(N)ncnc3n2C)cc1 (single isomer, unassigned) [Example 883] | 1 to 100 | 1 to 100 | –
15 | C#Cc1ccc(-c2c(C3=CC[C@H](C(=O)N4CCC[C@H]4COC)CC3)c3c(N)ncnc3n2C)c(C)n1 (single isomer, unassigned) [Example 1204] | < 0.1 | ≤ 0.1 | –
16 | C=C(C)C(=O)Nc1ccc(-c2c(C3=CCN(C(=O)N4CCCC4)CC3)c3c(N)ncnc3n2C)cc1 [Example 923] | 1 to 100 | 0.25 to 1 | –
17 | C#Cc1cc(C)c(-c2c(C3=CC[C@@]4(CC3)Cc3ccc(C)nc3O4)c3c(C)ncnc3n2C)cn1 [Example 1392] | 1 to 100 | 1 to 100 | –
18 | C=CC(=O)N1CCC(c2c(-c3ccc(Oc4cccc(C)n4)cc3)c3c(N)ncnc3n2C)C1(C)C (centres unmarked) [Example 844] | 1 to 100 | 1 to 100 | –
19 | C=C1C[C@@H](C)N(c2ccc(-c3c(-c4ccc(Oc5nccc(C)n5)cc4)c4c(N)ncnc4n3C)cc2)C1=O [Example 1113] | < 0.1 | ≤ 0.1 | –
20 | C#Cc1ncc(-c2c(-c3ccc(Oc4nccc(C)n4)cc3F)c3c(N)ncnc3n2C)c(C)c1F [Example 1310] | < 0.1 | ≤ 0.1 | –
21 | C=CC(=O)Nc1cc(-c2c(-c3ccc(Oc4nccc(C)n4)cc3)c3c(N)ncnc3n2C)n(C)n1 [Example 1108] | < 0.1 | ≤ 0.1 | –
22 | C=C(C)C(=O)Nc1ccc(-c2nn3ccnc(N)c3c2-c2ccc(C(=O)N3CCCC3)cc2)cc1 [Example 862] | 1 to 100 | 1 to 100 | –
23 | C=C(C)C(=O)Nc1ccc(-c2cn3ncnc(N)c3c2-c2ccc(C(=O)NCC(C)(C)OC)cc2)cc1 [Example 852] | 0.25 to 1 | 1 to 100 | –
24 | C=C(C)C(=O)Nc1ccc(-c2c(-c3ccc4[nH]ccc4c3)c3c(N)ncnc3n2C)cc1 [Example 1296] | 0.1 to 0.25 | 0.25 to 1 | –
25 | C#Cc1ncc(-c2c(C3=CC[C@H](C(=O)N4CCCC4)CC3)c3c(C)ncnc3n2C)c(C)n1 (single isomer, unassigned) [Example 1169] | < 0.1 | ≤ 0.1 | –

Row | Structure (SMILES) | IC50 [1] [µM] | IC50 [2, 3] [µM] | IC50 ([2]; SNU-16 cells) [µM]
26 | C=C(C)C(=O)Nc1ccc(-c2c(C3=CC[C@H](C(=O)N4CCCC45COC5)CC3)c3c(N)ncnc3n2C)c(F)c1 [Example 1012] | 0.25 to 1 | 0.1 to 0.25 | –
27 | C#C[C@H]1CCCN1C(=O)[C@@H]1CC=C(c2c(-c3ccc(NC(=O)C(=C)C)cc3)n(C)c3ncnc(N)c23)CC1 (single isomer, unassigned) [Example 953] | < 0.1 | 1 to 100 | –
28 | C=C(C)C(=O)Nc1ccc(-c2c(-c3ccc(C(=O)NCC4(F)CCC4)c(OC)c3)c3c(N)ncnc3n2C)cc1 [Example 946] | 0.25 to 1 | 1 to 100 | –
29 | C=C(C)C(=O)Nc1ccc(-c2cn3ncnc(N)c3c2-c2ccc(S(=O)(=O)N3CCCC3)cc2)cc1 [Example 826] | 0.25 to 1 | 0.25 to 1 | –
30 | C=CC(=O)Nc1ccc(-c2c(-c3ccc(Oc4cccc(C)n4)cc3)c3c(N)ncnn3c2CO)cc1 [Example 835] | 1 to 100 | 1 to 100 | –
31 | C#Cc1cc(C)c(-c2c(-c3ncc(Oc4nccc(C)n4)cc3F)c3c(N)ncnc3n2C)cn1 [Example 1492] | < 0.1 | ≤ 0.1 | –
32 | C#Cc1cc(C)c(-c2c(C3=CC[C@@H](C(=O)N4CCC[C@H]4C#N)CC3)c3c(C)ncnc3n2C)c(C)n1 (atropisomer, axis not shown) [Example 1464] | 0.25 to 1 | – | 0.25 to 1
33 | C=C(C)C(=O)Nc1ccc(-c2c(-c3ccc(-c4ccccn4)s3)c3c(N)ncnc3n2C)cc1 [Example 1278] | 0.25 to 1 | 0.25 to 1 | –
34 | C=C(C)C(=O)Nc1ccc(-c2c(-c3ccc(Oc4nccc(C)n4)c(F)c3)c3c(O)ncnc3n2C)cc1 [Example 1057] | < 0.1 | ≤ 0.1 | –
35 | C=CC(=O)N1CCc2ccc(-c3c(-c4ccc(Oc5nccc(C)n5)cc4)c4c(N)ncnc4n3C)cc2C1 [Example 916] | 1 to 100 | 0.1 to 0.25 | –
36 | C#Cc1ncc(-c2c(C3=CC[C@@H](C(=O)N4CCCC4)CC3)c3c(N)ncnc3n2C)c(C)n1 [Example 1180] | < 0.1 | ≤ 0.1 | –
37 | C=C(C)C(=O)Nc1ccc(-c2c(-c3ccc(C(=O)NCC(C)C)c(OC)c3)c3c(N)ncnc3n2C)cc1 [Example 910] | 1 to 100 | 1 to 100 | –
38 | C=C1CCN(c2ccc(-c3c(-c4ccc(Oc5nccc(C)n5)c(F)c4)c4c(N)ncnc4n3C)cc2)C1=O [Example 1110] | < 0.1 | ≤ 0.1 | –
39 | C=C(C)C(=O)Nc1ccc(-c2c(-c3cnc(-c4ccc(OC)cc4)s3)c3c(N)ncnc3n2C)cc1 [Example 1419] | < 0.1 | ≤ 0.1 | –
40 | C=C1CCN(c2ccc(-c3c(-c4ccc(Oc5nccc(C)n5)c(F)c4)c4c(C)ncnc4n3C)c(C)c2)C1=O [Example 1186] | < 0.1 | ≤ 0.1 | –
41 | C=C(C)C(=O)Nc1cc(C)c(-c2c(-c3ccc(Oc4nccc(C)n4)cc3)c3c(N)ncnc3n2C)c(F)c1 [Example 1097] | < 0.1 | ≤ 0.1 | –
42 | C#Cc1cc(C)c(-c2c(-c3ccc(Oc4nccc(C)n4)c(C#N)c3)c3c(N)ncnc3n2C)cn1 [Example 1262] | < 0.1 | ≤ 0.1 | –
43 | C#Cc1cc(C)c(-c2c(C3=CC[C@@H](C(=O)N4CCC[C@H]4COC)CC3)c3c(N)ncnc3n2C)cn1 (single isomer, unassigned) [Example 1212] | < 0.1 | 0.1 to 0.25 | –
44 | C=C(C)C(=O)Nc1ccc(-c2c(-c3ccc(C(=O)NCC(F)(F)F)cc3)c3c(N)ncnn3c2CO)cc1 [Example 832] | 1 to 100 | 1 to 100 | –
45 | C#Cc1cc(C)c(-c2nn3c(c2-c2ccc(Oc4nccc(C)n4)c(F)c2)COCC3)cn1 [Example 1462] | 1 to 100 | 1 to 100 | –
46 | C=C(C)C(=O)Nc1ccc(-c2cn3ncnc(N)c3c2-c2ccc(C(=O)NCC(C)(C)O)cc2)cc1 [Example 842] | 0.25 to 1 | 1 to 100 | –
47 | C=CC(=O)Nc1cc(-c2c(-c3ccc(Oc4cccc(C)n4)cc3)c3c(N)ncnc3n2C)n(C)n1 [Example 1098] | < 0.1 | ≤ 0.1 | –
48 | C=C(C)C(=O)Nc1ccc(-c2c(-c3ccc(Oc4nccc(C)n4)cc3)c3c(N)ncnc3n2C)c(C)c1Cl [Example 1071] | 0.25 to 1 | ≤ 0.1 | –
49 | C=C(C)C(=O)Nc1ccc(-c2c(-c3ccc(C(=O)NCC4CCC4)c(OC)n3)c3c(N)ncnc3n2C)cc1 [Example 983] | < 0.1 | ≤ 0.1 | –
